This is an account of results in article PMC11645656, “MRGPRX4 mediates phospho-drug associated pruritus in a humanized mouse model” (Science translational medicine, 2024).

One assay concerns the target MRGPRX4 S83L (L83) (Homo sapiens, UniProt Q96LA9). The assay is described as follows: Calcium mobilization assay (FLIPR), S83L MRGPRX4 transiently expressed in HEK293T cells. Details: expressed in transfected cells; host or cells: HEK293T, transient. The conditions noted are these: Fig. 4E, unit not in the head, taken from Concentration (M) of the sheet and pEC50 [M] of Fig. 4E, read-out: EC50s (each well represents individual experiment). The assay is classed as cell-based. The text has this: (§1) Fig. 4. […] Hydrogen bond is shown as cyan dashed lines. […] Data are from three independent experiments, performed in triplicate. (E) pEC50 plots of various agonists toward S83- and L83-MRGPRX4 through calcium mobilization assay. […] Each data point represents an independent experiment, performed in triplicate. The extra sum-of-square F test was used to examine the difference in EC50 values. One-sided t-test was used for nateglinide. *p< 0.05, **p< 0.01 and ***p< 0.001. ns = no statistical significance. Both (D) and (E) are reported as the mean ± SEM. N.D.= no detectable response ≤ 100 μM.
(§2) HEK293 cells and MRGPRX4 stably expressed HEK293 cells were seeded in 100 μl culture media on 96-well plates at a density of 40,000 cells per well and incubated overnight. The next day, the media were replaced with a dye-loading solution from the FLIPR Calcium 5 assay kit (Molecular Devices), diluted in Hank's Balanced Salt Solution (HBSS) with 20 mM HEPES, pH 7.4. After 1 h of incubation at 37°C, cells were allowed to recover for 10 min in the dark at room temperature prior to performing intracellular calcium mobilization assay in a Flexstation-3 instrument with SoftMax®Pro 7.1 software (Molecular Devices). Serial concentrations of tested drugs were prepared in HBSS/HEPES solution at 3X concentration. […] Compounds were tested in triplicates and the signals were averaged. Responses were determined by subtracting the minimum signal (at the baseline before adding the drug) from the maximum signal (obtained after drug stimulation). Four-parameter logistic (4PL) curve fit was used to plot the dose-response curves. […] Both dose-response curve fitting and EC50s calculation are computed with GraphPad Prism software (version: 6.o or above).
(§3) To generate murine Mrgprs expressing cells, HEK293T cells (ATCC) were seeded on poly-D-lysine coated 96 well plate at 25,000 cells per well one day prior to transfection. HEK293T cells were transiently co-transfected with the mammalian expression plasmids carrying cDNA encoding the murine Mrgpr genes and plasmid inserted with cDNA encoding murine α-subunit of the heterotrimeric G15 protein (Gα15) in triplicates using Lipofectamine LTX reagents (Thermo Scientific). To generate WT, S83L, and alanine mutant MRGPRX4-expressing cells, HEK293T cells were seeded on poly-D-lysine coated 384 well plate at 12,000 cells per well one day prior to transfection. Mammalian expression plasmids pLX304 (vector from Addgene) carrying different MRGPRX4 coding sequences were transiently transfected into HEK293T cells in triplicates with Lipofectamine LTX reagents (Thermo Scientific). Intracellular calcium mobilization assays were performed after one day of transfection. Murine Mrgprs tested include Mrgpra1, Mrgpra2a, Mrgpra2b, Mrgpra3, Mrgpra4, Mrgpra6, Mrgpra9, Mrgpra10, Mrgpra11, Mrgpra12, Mrgpra14, Mrgprb5, Mrgprb6, Mrgprb10, Mrgprb11, and Mrgprc11. WT and mutant MRGPRX4 constructs tested include WT, S83L, R82A, R86A, R95A, W158A, Y250A, and Y254A.

In a further assay the target is MRGPRX4 WT (S83) (Homo sapiens, UniProt Q96LA9, L83S). The assay is described as follows: Calcium mobilization assay (FLIPR), WT (S83) MRGPRX4 transiently expressed in HEK293T cells. The assay is classed as cell-based. Also noted: expressed in transfected cells; host or cells: HEK293T, transient. The conditions noted are these: for fig. S8 response (normalized), concentration-response: WT, single replicate; for Potency at S83- vs L83-MRGPRX4: calcium mobilization, compared with S83L (A17).
Description: as §1, §2, §3

The structures appear in SMILES notation. Values joined by “and” are separate entries in the source; they are usually repeats but may differ in a detail not shown here. Identical values can stand only once. Like-named read-outs stand apart in the source and are kept apart here. A value given as a limit tells only on which side of the number the result lay.

MRGPRX4 S83L (L83), sequence (Q96LA9 whole entry, stated change not applied): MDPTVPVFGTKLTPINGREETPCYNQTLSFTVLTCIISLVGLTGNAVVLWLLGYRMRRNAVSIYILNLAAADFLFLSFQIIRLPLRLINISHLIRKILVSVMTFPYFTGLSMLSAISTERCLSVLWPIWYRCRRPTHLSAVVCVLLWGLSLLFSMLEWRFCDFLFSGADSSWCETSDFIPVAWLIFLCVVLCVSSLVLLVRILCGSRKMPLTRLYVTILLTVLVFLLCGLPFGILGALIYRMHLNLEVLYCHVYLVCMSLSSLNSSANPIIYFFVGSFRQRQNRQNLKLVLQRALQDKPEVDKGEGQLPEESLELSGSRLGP
MRGPRX4 WT (S83), sequence (Q96LA9 whole entry L83S): as the sequence (Q96LA9 whole entry, stated change not applied) above, with L83S counted along it

Turning to `C[C@]12CC3CC(C(=O)N[C@H](Cc4ccccc4)C(=O)O)(C1)C[C@@](C)(C3)C2` [MS47134], the EC50 was 2.33e-07 M and 2.26e-07 M and 1.83e-07 M at MRGPRX4 S83L (L83); 1e-05 M and 9.11e-06 M and 5.25e-06 M at MRGPRX4 WT (S83) (WT (S83), Fig. 4E, unit not in the head, taken from Concentration (M) of the sheet and pEC50 [M] of Fig. 4E, read-out: EC50s (each well represents individual experiment)). Further, the “fig. S8 response (normalized), concentration-response” value (“fig. S8 response (normalized)” below) at MRGPRX4 WT (S83) (188.2 pM) is 11.5885 and 10.879 and 5.439 and 5.904 and 6.997 and 13.1195 and 4.054; at MRGPRX4 WT (S83) (564.5 pM), 1.419 and 2.1285 and 14.19 and 0.656 and -3.499 and 16.1808 and 2.837 and 3.081; on MRGPRX4 WT (S83) (1.69351e-9 M), 13.717 and 21.0485 and 8.041 and 7.872 and 6.341 and 14.6502 and 17.1869 and 20.1054; at MRGPRX4 WT (S83) (5.08053e-9 M), 10.406 and 7.095 and 9.933 and 10.7143 and 1.312 and 11.3703 and 16.214 and 17.6733; at MRGPRX4 WT (S83) (1.52416e-8 M), 16.555 and 11.5885 and 5.439 and 11.8076 and 1.749 and 16.6181 and 8.6745 and 13.0523; on MRGPRX4 WT (S83) (4.57247e-8 M) it was 20.1025 and 15.609 and 18.447 and 12.2449 and 9.84 and 19.0233 and 11.1066. For the same compound, the “fig. S8 response (normalized)” value on MRGPRX4 WT (S83) (1.37174e-7 M) is 23.177 and 26.015 and 20.1025 and 11.3703 and 12.9009 and 13.1195 and 23.7536; at MRGPRX4 WT (S83) (4.11523e-7 M) it was 18.92 and 25.069 and 17.2645 and 15.0875 and 10.7143 and 17.93 and 19.3758 and 16.214; on MRGPRX4 WT (S83) (1.23457e-6 M), 24.3595 and 15.8455 and 8.041 and 11.5889 and 9.621 and 14.4315 and 14.7548 and 20.5918; at MRGPRX4 WT (S83) (3.7037e-6 M), 23.8865 and 16.3185 and 10.879 and 20.3353 and 21.8659 and 19.0233 and 22.7807 and 20.3486; at MRGPRX4 WT (S83) (1.11111e-5 M), 45.6445 and 43.516 and 42.3335 and 43.5131 and 43.9504 and 44.6064 and 52.9388 and 53.9116; on MRGPRX4 WT (S83) (3.33333e-5 M), 61.017 and 69.0579 and 61.4432 and 62.3178 and 54.6647 and 48.561 and 41.5079. Further, on MRGPRX4 WT (S83) (0.0001 M), the “fig. S8 response (normalized)” value was 60.544 and 75.4434 and 62.6724 and 56.414 and 74.7813 and 68.4402 and 77.9895 and 57.3166. Moreover, on MRGPRX4 WT (S83), the “Potency at S83- vs L83-MRGPRX4” value was “the L83 allele, as previously reported, exhibited greater potency and efficacy”.

In the case of `CC(C)[C@H]1CC[C@H](C(=O)N[C@H](Cc2ccccc2)C(=O)O)CC1` [Nateglinide], the EC50 on MRGPRX4 S83L (L83) was 1.04e-06 M and 7.61e-07 M and 9.29e-07 M; on MRGPRX4 WT (S83) (S83-MRGPRX4, Fig. 4E, read-out: pEC50 (converted)) it was above 0.0001 M. The “fig. S8 response (normalized)” value was found to be 11.8843 at MRGPRX4 WT (S83) (1.52416e-8 M), 16.3409 at MRGPRX4 WT (S83) (4.11523e-7 M) and 15.4027 at MRGPRX4 WT (S83) (1.23457e-6 M). Further, the “Potency at S83- vs L83-MRGPRX4” value at MRGPRX4 WT (S83) was “the L83 allele, as previously reported, exhibited greater potency and efficacy”.
